Entries after “also recorded” stand apart in the source; their conditions may differ. Like-named read-outs stand apart in the source and are kept apart here.
What was measured:
GFP-AR = conditions: read-out: Nuclear Translocation EC50, cited from earlier work
[1] = system: GFP-PRER (chimeric progesterone receptor with ERα DBD); conditions: result in words; cited from earlier work
[2] = target: T1, GFP-ARER (chimeric androgen receptor with ERα DBD) (Homo sapiens, UniProt P10275, A574V/A587S/A588I/A597P/A623V/C570Y/D601Q/DEL544-554/E566Y/E589Q/F607N/G564N/G578E/I562V/K558R/K591H/K593D/L561A/L575W/L595M/L627K/N611S/P555K/P556E/P613Q/Q557T/Q592N/R599T/S579G/S598A/S614A/T542S/T559Y/T576S/T626M/V582A); assay: GFP-ARER:PRL-HeLa high content analysis assay; assay type: cell-based
T1 sequence (P10275 with tags, fused parts or gaps T542S/DEL544-554/P555K/P556E/Q557T/K558R/T559Y/L561A/I562V/G564N/E566Y/C570Y/A574V/L575W/T576S/G578E/S579G/V582A/A587S/A588I/E589Q/K591H/Q592N/K593D/L595M/A597P/S598A/R599T/D601Q/F607N/N611S/P613Q/S614A/A623V/T626M/L627K): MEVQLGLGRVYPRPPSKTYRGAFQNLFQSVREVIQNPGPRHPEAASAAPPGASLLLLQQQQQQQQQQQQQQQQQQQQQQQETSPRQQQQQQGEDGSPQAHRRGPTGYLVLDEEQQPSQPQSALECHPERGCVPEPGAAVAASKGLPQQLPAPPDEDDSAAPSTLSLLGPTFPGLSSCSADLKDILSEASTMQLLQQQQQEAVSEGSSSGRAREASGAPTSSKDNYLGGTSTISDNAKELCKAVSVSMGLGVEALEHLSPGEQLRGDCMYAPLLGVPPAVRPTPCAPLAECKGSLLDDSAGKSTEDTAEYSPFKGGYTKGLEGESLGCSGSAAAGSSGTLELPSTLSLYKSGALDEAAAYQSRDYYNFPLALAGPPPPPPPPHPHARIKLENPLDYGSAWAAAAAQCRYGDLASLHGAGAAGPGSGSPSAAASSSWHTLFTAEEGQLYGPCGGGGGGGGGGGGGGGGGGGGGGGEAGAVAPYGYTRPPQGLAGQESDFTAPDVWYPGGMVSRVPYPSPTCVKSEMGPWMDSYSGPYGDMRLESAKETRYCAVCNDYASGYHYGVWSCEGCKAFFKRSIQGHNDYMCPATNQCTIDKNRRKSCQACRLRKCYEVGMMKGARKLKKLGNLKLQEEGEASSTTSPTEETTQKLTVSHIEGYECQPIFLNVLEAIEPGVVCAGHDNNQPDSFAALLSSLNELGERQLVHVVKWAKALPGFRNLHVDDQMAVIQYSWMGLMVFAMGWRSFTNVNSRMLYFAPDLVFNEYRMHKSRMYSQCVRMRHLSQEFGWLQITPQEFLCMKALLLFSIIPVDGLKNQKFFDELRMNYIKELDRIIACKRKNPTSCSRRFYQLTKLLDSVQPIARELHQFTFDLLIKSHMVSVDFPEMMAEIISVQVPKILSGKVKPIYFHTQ

[3] = AUC normalized to vehicle and DHT controls, result in words
[4] = GFP-ARER:PRL-HeLa, 2 hours, result in words

C[C@]12CCC(=O)C[C@@H]1CC[C@@H]1[C@@H]2CC[C@]2(C)[C@@H](O)CC[C@@H]12 [DHT, 5α-dihydrotestosterone]
EC50 (GFP-AR; GFP-AR:HeLa): 11 ± 2 nM

CC#C[C@]1(O)CC[C@H]2[C@@H]3CCC4=CC(=O)CCC4=C3[C@@H](c3ccc(N(C)C)cc3)C[C@@]21C [RU486]
visible chromatin binding in the GFP-PRER:PRL-HeLa cell model [1]: induces visible chromatin binding

CN(C)c1ccc([C@H]2C[C@]3(C)[C@@H](CC[C@]3(O)CCCO)[C@@H]3CCC4=CC(=O)CCC4=C32)cc1 [ZK98299]
visible chromatin binding in the GFP-PRER:PRL-HeLa cell model [1]: does not

C[C@]12CC[C@@H]3c4ccc(O)cc4CC[C@H]3[C@@H]1CCC2=O [estrone]
AUC score for nuclear translocation, chromatin binding, and receptor stabilization (k-means cluster) [2, 3]: low/moderate AUC score | GFP-ARER nuclear translocation [2, 4]: strongest responders | visible chromatin binding (PRL array spot) by GFP-ARER [2, 4]: induce a visible spot indicating chromatin binding

CC(C)(O)C(=O)Nc1ccc([N+](=O)[O-])c(C(F)(F)F)c1 [hydroxyflutamide]
GFP-ARER nuclear translocation [2]: strongest responders; also recorded: induced GFP-ARER nuclear translocation | nuclear translocation AUC score (k-means Cluster 3) [2]: stronger AUC scores | visible chromatin binding (PRL array spot) by GFP-ARER [2]: undetectable evidence of chromatin binding

CC12CC1(C)C(=O)N(c1cc(Cl)cc(Cl)c1)C2=O (stereo not shown) [promycidone, procymidone]
nuclear translocation AUC score (k-means Cluster 3) [2, 3]: stronger AUC scores | GFP-ARER nuclear translocation [2, 4]: strongest responders

Cc1cc(C(C)(C)c2cc(C)c(O)c(C)c2)cc(C)c1O [tetramethyl-bisphenol A]
nuclear translocation response ([2]; supplemented ATSDR chemicals and mixtures, 0.1 nM to 10 μM (chemicals), 200-fold to 200,000-fold dilution (mixtures), 2 hours): 10-12 % of DHT response

Source: article PMC7477889 (SLAS discovery : advancing life sciences R & D, 2020)
